Calls of active or inactive are those of the source.
Experiments:
Mus musculus [1] = test: Anxiolytic activity in restraint stress induced anxiety mouse model assessed as total number of responses at 2 to 50 mg/kg, ip administered measured after 5 mins by plus maze test; assay type: functional, organism-based; conditions: dose 2-50 mg/kg
Mus musculus [2] = test: Antinociceptive activity in C57BL6 mouse model of inflammatory pain assessed as total number of responses during second phase at 2 to 50 mg/kg, ip administered by formalin test; assay type: functional, organism-based; conditions: dose 2-50 mg/kg
[3] = Induction of cytosolic calcium ion concentration in mouse peptidergic nociceptive DRG neuron at 10 uM measured after 1 hr by Fura2AM dye based fluorescence microscopic analysis; assay type: functional
[4] = Induction of cytosolic calcium ion concentration in mouse non-peptidergic nociceptive DRG neuron at 10 uM measured after 1 hr by Fura2AM dye based fluorescence microscopic analysis; assay type: functional
Mus musculus [5] = test: Anxiolytic activity in restraint stress induced anxiety mouse model assessed as total number of responses at 2 to 50 mg/kg, ip administered measured after 5 mins by open field test; assay type: functional, organism-based; conditions: dose 2-50 mg/kg
Neuron [6] = test: Negative allosteric modulation of mouse GABA receptor in mouse C-low-threshold mechanoreceptive DRG neurons assessed as inhibition of KCl-induced response at 40 uM; assay type: tissue-based; conditions: filed as negative allosteric modulator
[7] = Induction of cytosolic calcium ion concentration in mouse DRG other neuron subtype at 10 uM measured after 1 hr by Fura2AM dye based fluorescence microscopic analysis; assay type: functional
Neuron [8] = test: Negative allosteric modulation of human GABA receptor expressed in mouse DRG neurons assessed as inhibition of 340 nM GABA-induced responses at 0.5 uM using cold thermo-sensors; assay type: tissue-based; conditions: filed as negative allosteric modulator
HEK = test: Negative allosteric modulation of human GABA receptor expressed in HEK cells assessed as inhibition of GABA-induced current in presence of EC20 concentration of GABA by patch clamp method; assay type: cell-based; conditions: filed as negative allosteric modulator
[9] = Reduction of ATP and Kcl-induced increase in cytosolic Ca2+ ion concentration mouse non-peptidergic nociceptive DRG neuron assessed as neuron population at 10 uM measured after 1 hr by Fura2AM dye based fluorescence microscopic analysis; assay type: functional; set-up: scale not given: the % may be the effect or the level left
[10] = biological target: T1, GABA A receptor alpha-1/beta-1/gamma-2 (Homo sapiens, UniProt P14867+P18505+P18507); test: Negative allosteric modulation activity at human GABAA alpha1beta1gamma2 stably expressed in HEK cells by whole cell patch clamp method; assay type: cell-based
T1 sequence (P14867 whole entry): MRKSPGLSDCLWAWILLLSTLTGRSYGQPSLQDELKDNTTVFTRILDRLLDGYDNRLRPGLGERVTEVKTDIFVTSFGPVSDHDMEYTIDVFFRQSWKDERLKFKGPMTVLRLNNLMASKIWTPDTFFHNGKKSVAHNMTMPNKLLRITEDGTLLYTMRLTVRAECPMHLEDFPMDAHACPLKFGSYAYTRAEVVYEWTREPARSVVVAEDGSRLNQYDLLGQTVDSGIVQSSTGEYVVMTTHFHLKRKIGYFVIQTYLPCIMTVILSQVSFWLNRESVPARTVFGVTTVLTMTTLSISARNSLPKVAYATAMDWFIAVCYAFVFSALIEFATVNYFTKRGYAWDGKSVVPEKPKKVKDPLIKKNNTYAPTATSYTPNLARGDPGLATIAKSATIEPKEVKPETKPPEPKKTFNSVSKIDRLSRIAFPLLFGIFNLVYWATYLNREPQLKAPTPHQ
T1 sequence (P18507 whole entry): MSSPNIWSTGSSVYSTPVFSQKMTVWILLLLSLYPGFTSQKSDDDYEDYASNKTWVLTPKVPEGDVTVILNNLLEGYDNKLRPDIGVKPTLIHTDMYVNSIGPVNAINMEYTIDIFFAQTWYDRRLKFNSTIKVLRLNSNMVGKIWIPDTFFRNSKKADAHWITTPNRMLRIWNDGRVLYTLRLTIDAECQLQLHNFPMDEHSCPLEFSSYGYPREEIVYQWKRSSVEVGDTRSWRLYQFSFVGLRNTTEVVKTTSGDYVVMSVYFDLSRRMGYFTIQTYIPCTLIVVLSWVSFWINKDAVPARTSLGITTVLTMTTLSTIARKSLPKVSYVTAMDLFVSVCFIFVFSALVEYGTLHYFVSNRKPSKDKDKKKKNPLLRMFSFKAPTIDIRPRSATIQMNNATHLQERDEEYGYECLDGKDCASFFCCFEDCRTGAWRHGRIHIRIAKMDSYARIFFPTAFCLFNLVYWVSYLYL
T1 sequence (P18505 whole entry): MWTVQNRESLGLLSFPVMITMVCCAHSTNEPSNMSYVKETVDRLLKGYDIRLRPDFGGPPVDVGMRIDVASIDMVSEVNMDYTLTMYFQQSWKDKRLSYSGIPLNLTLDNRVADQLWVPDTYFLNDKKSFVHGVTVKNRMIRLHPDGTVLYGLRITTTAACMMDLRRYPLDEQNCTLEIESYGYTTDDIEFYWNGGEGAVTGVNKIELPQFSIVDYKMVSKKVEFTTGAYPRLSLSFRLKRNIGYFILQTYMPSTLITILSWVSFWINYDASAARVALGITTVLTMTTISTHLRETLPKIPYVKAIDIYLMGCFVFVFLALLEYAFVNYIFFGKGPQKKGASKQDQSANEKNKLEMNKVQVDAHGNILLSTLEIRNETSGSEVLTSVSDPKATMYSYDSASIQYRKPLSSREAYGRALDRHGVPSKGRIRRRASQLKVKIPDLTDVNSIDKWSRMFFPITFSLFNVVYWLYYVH

[11] = Reduction of ATP and Kcl-induced increase in cytosolic Ca2+ ion concentration mouse peptidergic nociceptive DRG neuron assessed as neuron population at 10 uM measured after 1 hr by Fura2AM dye based fluorescence microscopic analysis; assay type: functional; set-up: scale not given: the % may be the effect or the level left
Neuron [12] = test: Negative allosteric modulation of human GABA receptor expressed in mouse DRG neurons assessed as inhibition of 340 nM GABA-induced responses at 0.5 uM using nociceptor; assay type: tissue-based; conditions: filed as negative allosteric modulator
Neuron [13] = test: Negative allosteric modulation of human GABA receptor expressed in mouse DRG neurons assessed as inhibition of 500 nM GABA-induced response at 0.5 uM; assay type: tissue-based; conditions: filed as negative allosteric modulator

In the case of `CC(C)CCC[C@@H](C)[C@H]1CC[C@H]2[C@@H]3C(=O)C=C4C=CCC[C@]4(C)[C@H]3CC[C@]12C`, the Activity (Mus musculus [1]) is reported as “inactive”, the Activity (Mus musculus [2]) is reported as “inactive” and the Activity [3] is reported as 33%. For the same compound, the Activity [4] was 27%, the Activity (Mus musculus [5]) was “inactive” and the Activity (Neuron [6]) was “Active”. For the same compound, the Activity [7] was 3%, the Activity (Neuron [8]) was “Active” and the Activity (HEK) was “Active”. The Activity [9] was 9%, the IC50 [10] was 1.5 µM and the Activity [11] was 4%. For the same compound, the Activity (Neuron [12]) was “Active” and the Activity (Neuron [13]) was “Active”.

Reference: ChEMBL document CHEMBL5032490, “Neuroactive Type-A γ-Aminobutyric Acid Receptor Allosteric Modulator Steroids from the Hypobranchial Gland of Marine Mollusk, Conus geographus” (J Med Chem, 2021)
